These are literature values, as cited in patent US20120190646A1, “Compositions Comprising Thalidomide and Artemisinin for the Treatment of Cancer” (priority 2009, published 2012).

The conditions of this series: multiple myeloma patients; thalidomide administered without prophylaxis; 'as high as'.

Take `O=C1CCC(N2C(=O)c3ccccc3C2=O)C(=O)N1` (racemic) [thalidomide, 2-(2,6-dioxo-3-piperidinyl)-1H-isoindole-1,3(2H)-dione]: the VTE rates is at most 26%.
